Reference: US9901592B2 (priority 2008, dated 2018)
In brackets after ≈: the same amount, converted by molar mass. Like-named read-outs stand apart in the source and are kept apart here.

Columns and labels:
S. pyogenes [1] = assay type: cell-based; design: MIC: unit not given beside the values; settings: for MIC50 / MIC90: Streptococcus pyogenes
M. fermentans = assay type: cell-based; settings: M. fermentans (15 isolates)
U. parvum = test: MIC testing in 10B broth (colour change); assay type: cell-based, Ureaplasma parvum
N. meningitidis = test: MIC, CLSI broth microdilution, invasive isolates; assay type: cell-based; settings: Neisseria meningitidis; 62 N. meningitidis isolates
Protocol: Example. […] Colonization of the nasopharynx (NP) by NM can lead to invasive meningococcal disease. Chemoprophylaxis is used to eradicate NP colonization and prevent transmission to nonimmune contacts. […] 62 isolates (91.9% blood culture) of NM were collected from 29 medical centers in North and South America and Europe (1997-2008). […] Serological identification was performed for serogroups (SGs) B, C, Y and W135.

S. pneumoniae [2] = assay type: cell-based; settings: for Mutant selection frequencies: S. pneumoniae
S. pyogenes [3] = assay type: cell-based
S. aureus = test: mouse systemic infection model (PD50); assay type: in vivo
S. pneumoniae [4] = test: MIC of the strains of the mouse systemic infection model; assay type: cell-based; settings: Streptococcus pneumoniae
S. pyogenes [5] = test: as above; assay type: cell-based; settings: Streptococcus pyogenes
S. pneumoniae [6] = test: mouse subcutaneous abscess model; assay type: in vivo; settings: S. pneumoniae 1629, 10 mg/Kg PO
Protocol: Example. Efficacy was evaluated in several infection models. […] PD50s were determined 24 hr post infection. CEM-101 was further evaluated in a subcutaneous abscess mouse model against S. pneumoniae. CD-1 female mice were infected via SC injection of bacteria mixed with cyclodextran beads. Two hr post infection, mice received a single oral dose of CEM 101 or control agents. At 48 hr post dose, mice were euthanized, abscesses aseptically removed and bacteria enumerated. CFU per abscess was determined and compared to the untreated control. […] 24 hr post treatment, the thighs were processed and CFU/gram of thigh determined.
Example. Mouse Subcutaneous Abscess. Bacteria were prepared from an overnight plate culture by re-suspending in saline and adjusting the suspension to a 0.1 OD at 625 nm of a 1:10 dilution. The adjusted bacterial suspension was mixed 1:2 with cyclodextran beads prepared as per package instructions. The right flanks of the mice were shaven and injected subcutaneously with 0.2 ml of the bacterial inoculum. Two hours post infection mice were treated via oral gavage with either test article or control drug. 48 hours post infection, mice were euthanized, abscesses aseptically removed, homogenized, serially diluted and plated on bacterial growth agar. After overnight incubation, colonies were counted and CFUs/gram of abscess were determined.
Example. The ability of CEM101 to reduce the microbial load in abscess infection model was also assessed against S. pneumoniae isolates.

S. pneumoniae [7] = test: microbe, parasite or virus in culture; assay type: cell-based
[8] = test system: viridans group streptococci (VGS); assay type: cell-based; settings: VGS (51)
S. pneumoniae [9] = test: neutropenic mouse thigh infection; assay type: in vivo; settings: QD, PO
H. influenzae ATCC 49247 = test: post-antibiotic effect (PAE) testing; settings: H. influenzae ATCC 49247; 4X MIC; exposure 1 hour
[10] = S. pyogenes TEL R, Macr-R, 10 strains
[11] = S. pyogenes TEL S, Macr-R, 30 strains
[12] = S. pyogenes TEL S, Macr-S, 10 strains

SMILES: CC[C@H]1OC(=O)[C@H](C)C(=O)[C@H](C)[C@@H](O[C@@H]2O[C@H](C)C[C@H](N(C)C)[C@H]2O)[C@](C)(OC)C[C@@H](C)C(=O)[C@H](C)[C@H]2N(CCCCn3cnc(-c4cccnc4)c3)C(=O)O[C@]12C [TEL, telithromycin]
- MIC (S. pyogenes [1]; MAC-R S. pyogenes 3029): (16)
- MIC50 (S. pyogenes [1]; [10]): 32 µg/mL (≈ 39.4 µM)
- MIC90 (S. pyogenes [1]; [10]): 32 µg/mL (≈ 39.4 µM)
- MIC50 (S. pyogenes [1]; [11]): 0.125 µg/mL (≈ 0.154 µM)
- MIC90 (S. pyogenes [1]; [11]): 0.5 µg/mL (≈ 0.616 µM)
- MIC50 (S. pyogenes [1]; [12]): 0.03 µg/mL (≈ 0.0369 µM)
- MIC90 (S. pyogenes [1]; [12]): 0.03 µg/mL (≈ 0.0369 µM)
- MIC Range (M. fermentans): 0.002 to 0.031 µg/mL
- MIC50 (M. fermentans; Mycoplasmopsis fermentans): ≤ 0.008 µg/mL
- MIC90 (M. fermentans; Mycoplasmopsis fermentans): 0.016 µg/mL (≈ 0.0197 µM)
- MIC Range (U. parvum; U. parvum (10 isolates)): 0.008 to 0.063 µg/mL
- MIC50 (U. parvum; Ureaplasma parvum): 0.063 µg/mL (≈ 0.0776 µM)
- MIC90 (U. parvum; Ureaplasma parvum): 0.125 µg/mL (≈ 0.154 µM)
- MIC (N. meningitidis): 0.015 to 0.12 µg/mL (≈ 0.0185 to 0.148 µM)
- MIC50 (N. meningitidis): ≤ 0.015 µg/mL
- MIC90 (N. meningitidis): 0.03 µg/mL (≈ 0.0369 µM)
- Mutant selection frequencies (S. pneumoniae [2]; at 2×MIC): 1.1×10^−9-1.3×10^−4
- Mutant selection frequencies (S. pneumoniae [2]; at 8×MIC): <1.5×10^−10-4.8×10^−6
- single step mutation frequency (S. pneumoniae [2]; strain 24 Macrolide-R [erm(B)], 2 × MIC): 1.3 × 10^−4
- single step mutation frequency (S. pneumoniae [2]; strain 24 Macrolide-R [erm(B)], 4 × MIC): 2.5 × 10^−6
- single step mutation frequency (S. pneumoniae [2]; strain 24 Macrolide-R [erm(B)], 8 × MIC): 1.7 × 10^−6
- single step mutation frequency (S. pneumoniae [2]; strain 1076 Macrolide-R [erm(B)&mef(A)], 2 × MIC): 6.5 × 10^−6
- single step mutation frequency (S. pneumoniae [2]; strain 1076 Macrolide-R [erm(B)&mef(A)], 4 × MIC): 9.7 × 10^−6
- single step mutation frequency (S. pneumoniae [2]; strain 1076 Macrolide-R [erm(B)&mef(A)], 8 × MIC): 4.8 × 10^−6
- single step mutation frequency (S. pneumoniae [2]; strain 1077 Macrolide-S, 2 × MIC): 1.1 × 10^−9
- single step mutation frequency (S. pneumoniae [2]; strain 1077 Macrolide-S, 4 × MIC): <5.5 × 10^−10
- single step mutation frequency (S. pneumoniae [2]; strain 1077 Macrolide-S, 8 × MIC): <5.5 × 10^−10
- single step mutation frequency (S. pneumoniae [2]; strain 1635 Macrolide-R [erm(A)], 2 × MIC): <2.7 × 10^−9
- single step mutation frequency (S. pneumoniae [2]; strain 1635 Macrolide-R [erm(A)], 4 × MIC): <2.7 × 10^−9
- single step mutation frequency (S. pneumoniae [2]; strain 1635 Macrolide-R [erm(A)], 8 × MIC): <2.7 × 10^−9
- single step mutation frequency (S. pneumoniae [2]; strain 2686 Macrolide-R [L4 mutation], 2 × MIC): 2.2 × 10^−5
- single step mutation frequency (S. pneumoniae [2]; strain 2686 Macrolide-R [L4 mutation], 4 × MIC): 2.2 × 10^−9
- single step mutation frequency (S. pneumoniae [2]; strain 2686 Macrolide-R [L4 mutation], 8 × MIC): <1.1 × 10^−9
- single step mutation frequency (S. pneumoniae [2]; strain 3009 Macrolide-R [23S rRNA mutation], 2 × MIC): 3.8 × 10^−7
- single step mutation frequency (S. pneumoniae [2]; strain 3009 Macrolide-R [23S rRNA mutation], 4 × MIC): <1.5 × 10^−10
- single step mutation frequency (S. pneumoniae [2]; strain 3009 Macrolide-R [23S rRNA mutation], 8 × MIC): <1.5 × 10^−10
- single step mutation frequency (S. pneumoniae [2]; strain 3665 Macrolide-R [mef(A)], 2 × MIC): 7.5 × 10^−9
- single step mutation frequency (S. pneumoniae [2]; strain 3665 Macrolide-R [mef(A)], 4 × MIC): 2.5 × 10^−9
- single step mutation frequency (S. pneumoniae [2]; strain 3665 Macrolide-R [mef(A)], 8 × MIC): <2.5 × 10^−10
- single step mutation frequency (S. pneumoniae [2]; strain 7127 Macrolide-S [S20N in L4, A105V in L22], 2 × MIC): <5.0 × 10^−9
- single step mutation frequency (S. pneumoniae [2]; strain 7127 Macrolide-S [S20N in L4, A105V in L22], 4 × MIC): <5.0 × 10^−9
- single step mutation frequency (S. pneumoniae [2]; strain 7127 Macrolide-S [S20N in L4, A105V in L22], 8 × MIC): <5.0 × 10^−9
- Mutant selection frequencies (S. pyogenes [3]; S. pyogenes, at 2×MIC): <8.3×10^−11-7.7×10^−8
- single step mutation frequency (S. pyogenes [3]; strain 237 Macrolide-R [L4 mutation], 2 × MIC): <2.0 × 10^−10
- single step mutation frequency (S. pyogenes [3]; strain 237 Macrolide-R [L4 mutation], 4 × MIC): <2.0 × 10^−10
- single step mutation frequency (S. pyogenes [3]; strain 237 Macrolide-R [L4 mutation], 8 × MIC): <2.0 × 10^−10
- single step mutation frequency (S. pyogenes [3]; strain 2011 Macrolide-R [mef(A)], 2 × MIC): 3.8 × 10^−8
- single step mutation frequency (S. pyogenes [3]; strain 2011 Macrolide-R [mef(A)], 4 × MIC): <6.3 × 10^−10
- single step mutation frequency (S. pyogenes [3]; strain 2011 Macrolide-R [mef(A)], 8 × MIC): <6.3 × 10^−10
- single step mutation frequency (S. pyogenes [3]; strain 2094 Macrolide-R [erm(A)], 2 × MIC): 7.7 × 10^−8
- single step mutation frequency (S. pyogenes [3]; strain 2094 Macrolide-R [erm(A)], 4 × MIC): <1.5 × 10^−10
- single step mutation frequency (S. pyogenes [3]; strain 2094 Macrolide-R [erm(A)], 8 × MIC): <1.5 × 10^−10
- single step mutation frequency (S. pyogenes [3]; strain 2132 Macrolide-S, 2 × MIC): <8.3 × 10^−11
- single step mutation frequency (S. pyogenes [3]; strain 2132 Macrolide-S, 4 × MIC): <8.3 × 10^−11
- single step mutation frequency (S. pyogenes [3]; strain 2132 Macrolide-S, 8 × MIC): <8.3 × 10^−11
- PD50 (S. aureus; MRSA 300 (CA)): 9.2 mg/kg
- PD50 (S. aureus; S. aureus, single oral dose 1 hr post infection): >30 mg/kg
- MIC (S. pneumoniae [4]; S. pneumoniae (macrolide susceptible)): < 0.06 µg/mL
- MIC (S. pneumoniae [4]; S. pneumoniae (mefR), read-out: MIC): 0.25 µg/mL
- MIC (S. pneumoniae [4]; S. pneumoniae serotype 19A, read-out: MIC): 0.5 µg/mL
- MIC (S. pyogenes [5]; S. pyogenes (erythromycin R)): 1 µg/mL
- MIC (S. pyogenes [5]; S. pyogenes (macrolide susceptible)): 0.015 µg/mL
- average log10 CFU/gram of abscess (S. pneumoniae [6]; 24 hours): about 3 log10 CFU/gram
- average log10 CFU/gram of abscess (S. pneumoniae [6]; 48 hours): about 4.5 log10 CFU/gram
- MIC 90% (S. pneumoniae [7]): 0.5 µg/mL (≈ 0.616 µM)
- susceptible (S. pneumoniae [7]): 100.0%
- MIC90 (S. pneumoniae [7]; Streptococcus pneumoniae): 1 µg/mL (≈ 1.23 µM)
- MIC50 [8]: 0.015 µg/mL (≈ 0.0185 µM)
- MIC90 [8]: 0.25 µg/mL (≈ 0.308 µM)
- MIC Range [8]: ≦0.008-0.5 μg/ml
- Dose for 1 log10 Reduction from 24 hour controls (S. pneumoniae [9]; S. pneumoniae 1629): 11.0 mg/Kg
- Dose for 3 log10 Reduction from 24 hour controls (S. pneumoniae [9]; S. pneumoniae 1629): 15.5 mg/Kg
- Dose for 1 log10 Reduction from 24 hour controls (S. pneumoniae [9]; S. pneumoniae 6303): 4.75 mg/Kg
- Dose for 2 log10 Reduction from 24 hour controls (S. pneumoniae [9]; S. pneumoniae 6303): 6.5 mg/Kg
- Dose for 3 log10 Reduction from 24 hour controls (S. pneumoniae [9]; S. pneumoniae 6303): 8.75 mg/Kg
- PAE (H. influenzae ATCC 49247): 1.2 h
